The values that follow come from US6337317B1, “Antimicrobial peptides and methods of use thereof” (priority 2000, dated 2002).

Where a SMILES comes first, the peptide text is derived from it.

For experiment [1], the system named is E. coli 0111:B4 LPS induced production of TNF-α in RAW macrophages. The experiment is described as follows: Reduction of LPS-induced TNF-α in RAW 264.7 macrophages (ELISA). The conditions noted are these: peptide 20 μg/ml; LPS 100 ng/ml; RAW 264.7; 6 hours. The format is cell-based, murine. The method, then:
The ability of invention peptides to reduce LPS-induced tumor necrosis factor (TNF) production was tested in an in vitro assay. The murine macrophage cell line RAW 264.7 was obtained from American Type Culture Collection (Manassas, Va.) and grown in DMEM medium supplemented with 10% fetal calf serum. The cells were plated at a density of 10^6 cells/well in 24 well plates, incubated overnight, then washed with fresh medium. E. coli 0111 :B4 (100 ng/ml) was added at time 0 to RAW macrophages. Invention peptides […]/m were added at time 0, 30 and 60 minutes and the cells were stimulated for 6 hours. Levels of TNF and interleukin-6 (IL-6) were measured after 6 hours.
A general note: An ELISA detects its analyte on a solid surface through an enzyme-linked reagent.

Experiment [2] in a line: Dansyl polymyxin B displacement assay (binding affinity for LPS). Also on record: species or system Escherichia coli. The method, then: To determine whether invention peptides are able to interact with the LPS of Gram-negative bacterial outer membrane, the binding affinity of peptide for LPS was determined using a dansyl polymyxin B displacement assay (Moore et al. (1986) Antimicrobial Agents Chemother. 29:496-500). The assay uses dansyl polymyxin, a cationic probe that is highly fluorescent only when bound and LPS isolated from E. coli. UB1005. […] Maximal displacement of LPS was expressed as a percentage where 100% displacement of dansyl polymyxin B was taken as that observed with polymyxin B.

Turning to `CC(C)[C@@H]1NC(=O)[C@H](CCCNC(=N)N)NC(=O)[C@H](Cc2ccccc2)NC(=O)[C@@H](NC(=O)[C@H](Cc2c[nH]c3ccccc23)NC(=O)[C@H](CCCNC(=N)N)NC(=O)[C@@H](N)CCCNC(=N)N)CSSC[C@@H](C(=O)N[C@@H](CCCNC(=N)N)C(N)=O)NC(=O)[C@H](CCCCN)NC(=O)[C@H](CCCNC(=N)N)NC(=O)[C@H](Cc2ccc(O)cc2)NC(=O)[C@@H]2CSSC[C@H](NC1=O)C(=O)N[C@@H](Cc1ccc(O)cc1)C(=O)N[C@@H](CCCNC(=N)N)C(=O)NCC(=O)N[C@@H](Cc1ccccc1)C(=O)N2` [Polyphemusin I] (HELM PEPTIDE1{R.R.W.C.F.R.V.C.Y.R.G.F.C.Y.R.K.C.R.[am]}$PEPTIDE1,PEPTIDE1,4:R3-17:R3|PEPTIDE1,PEPTIDE1,8:R3-13:R3$$$V2.0; N-terminus and C-terminus assumed), the “Inhibition of TNF-α (%)” value in experiment [1] came to 83 ± 6%. In addition, in experiment [2] (maximal displacement, 100% = that observed with polymyxin B), the Imax is recorded as 85%. Besides, the IC50 in experiment [2] (peptide concentration reducing bound dansyl polymyxin B (10 μM) by 50% of maximal displacement, read-out: I50) is 4.8 µM.
